Results taken from US6479435B1, “Diaryl ethers and processes for their preparation and herbicidal and desiccant compositions containing them” (ISK Americas Incorporated, priority 1997, dated 2002).

How the values were obtained:
Assay type in all cases: in vivo
[1] = tested on: soybean (Glycine max L., var. Pella 86, SOY); test: Pre-emerge greenhouse test, crop damage rating; parameters: key to SOY crop damage rating: 0 = no damage, 100 = complete death of all plants; conditions: 14 days after application, rating scale 0-100
Summary of the method: (§1)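 Seeds sown in sandy loam mix one day before track-sprayer application of compounds in acetone at 125–1000 g ai/ha (187 l/ha), then surface-watered to incorporate and bottom-watered. Visual rating 14 days after application on a 0–100 scale (0 = no damage, 100 = all plants dead).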

[2] = tested on: field corn (Zea mays L., var. Dekalb 535, CORN); test: Post-emerge greenhouse test, crop damage rating; conditions: 14 days after application, scale 0-100
Summary of the method: (§2)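 Compounds in acetone with 0.25% v/v non-ionic surfactant were track-sprayed at 187 l/ha over plants at the 2-3 leaf stage, at 63 to 1000 g ai/ha. Pots were bottom-watered. Injury was scored visually 14 days later on a 0-100 scale, where 0 is no damage and 100 is complete plant death.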

[3] = tested on: upland rice (Oryza sp., var.Tebonnet, RICE); test: Post-emerge greenhouse test, crop damage rating; conditions: 14 days after application, scale 0-100
Summary of the method: as §2

[4] = tested on: sicklepod (Cassia obtusifolia, CASOB); test: Pre-emerge greenhouse herbicide test, phytotoxicity rating; conditions: 14 days after application, rating scale 0-100
Summary of the method: as §1

[5] = tested on: redroot pigweed (Amaranthus retroflexus, AMARE); test: as above; conditions: 14 days after application, rating scale 0-100
Summary of the method: as §1

[6] = tested on: velvetleaf (Abutilon theophrasti, ABUTH); test: as above; conditions: 14 days after application, rating scale 0-100
Summary of the method: as §1

[7] = tested on: large crabgrass (Digitaria sanguinalis, DIGSA); test: as above; conditions: 14 days after application, rating scale 0-100
Summary of the method: as §1

[8] = tested on: green foxtail (Setaria viridis, SETVI); test: as above; conditions: 14 days after application, rating scale 0-100
Summary of the method: as §1

[9] = tested on: ivyleaf morningglory (Ipomoea hederacea, IPOHE); test: as above; conditions: 14 days after application, rating scale 0-100
Summary of the method: as §1

[10] = tested on: common ragweed (Ambrosia artemisiifolia L., AMBEL); test: as above; conditions: 14 days after application, rating scale 0-100
Summary of the method: as §1

[11] = tested on: barnyardgrass (Echinochloa crusgalli, ECHCG); test: as above; conditions: 14 days after application, rating scale 0-100
Summary of the method: as §1

[12] = tested on: Johnsongrass (Sorghum halepense, SORHA); test: as above; conditions: 14 days after application, rating scale 0-100
Summary of the method: as §1

[13] = tested on: lambsquarters (Chenopodium album, CHEAL); test: as above; conditions: 14 days after application, rating scale 0-100
Summary of the method: as §1

[14] = tested on: sicklepod (Cassia obtusifolia, CASOB); test: Post-emerge greenhouse herbicide test, phytotoxicity rating; conditions: 14 days after application, scale 0-100
Summary of the method: as §2

[15] = tested on: redroot pigweed (Amaranthus retroflexus, AMARE); test: as above; conditions: 14 days after application, scale 0-100
Summary of the method: as §2

[16] = tested on: velvetleaf (Abutilon theophrasti, ABUTH); test: as above; conditions: 14 days after application, scale 0-100
Summary of the method: as §2

[17] = tested on: large crabgrass (Digitaria sanguinalis, DIGSA); test: as above; conditions: 14 days after application, scale 0-100
Summary of the method: as §2

[18] = tested on: green foxtail (Setaria viridis, SETVI); test: as above; conditions: 14 days after application, scale 0-100
Summary of the method: as §2

[19] = tested on: ivyleaf morningglory (Ipomoea hederacea, IPOHE); test: as above; conditions: 14 days after application, scale 0-100
Summary of the method: as §2

[20] = tested on: barnyardgrass (Echinochloa crusgalli, ECHCG); test: as above; conditions: 14 days after application, scale 0-100
Summary of the method: as §2

[21] = tested on: Johnsongrass (Sorghum halepense, SORHA); test: as above; conditions: 14 days after application, scale 0-100
Summary of the method: as §2

[22] = tested on: lambsquarters (Chenopodium album, CHEAL); test: as above; conditions: 14 days after application, scale 0-100
Summary of the method: as §2

[23] = tested on: common ragweed (Ambrosia artemisiifolia L., AMBEL); test: as above; conditions: 14 days after application, scale 0-100
Summary of the method: as §2

[24] = tested on: soybean (Glycine max L., var. Pella 86, SOY); test: Post-emerge greenhouse test, crop damage rating; parameters: key to crop damage rating SOY: 0-100 scale: 0 = no damage, 100 = complete death of all plants; conditions: 14 days after application, scale 0-100
Summary of the method: as §2

[25] = tested on: field corn (Zea mays L., var. Dekalb 535, CORN); test: Pre-emerge greenhouse test, crop damage rating; conditions: 14 days after application, rating scale 0-100
Summary of the method: as §1

[26] = tested on: upland rice (Oryza sp., var.Tebonnet, RICE); test: Pre-emerge greenhouse test, crop damage rating; conditions: 14 days after application, rating scale 0-100
Summary of the method: as §1

Compound: O=c1n(-c2cc(Oc3cccc(F)n3)c(Cl)cc2F)c(=S)n2n1CCCC2 [Compound 8-25]
- SOY crop damage rating ([1]; Rate 125 g al/ha): 0
- SOY crop damage rating ([1]; Rate 500 g al/ha): 20
- crop damage rating CORN ([2]; rate 63 g ai/ha): 10
- crop damage rating CORN ([2]; rate 500 g ai/ha): 25
- crop damage rating RICE ([3]; rate 63 g ai/ha): 10
- crop damage rating RICE ([3]; rate 500 g ai/ha): 60
- CASOB phytotoxicity rating ([4]; Rate 125 g al/ha): 70
- CASOB phytotoxicity rating ([4]; Rate 500 g al/ha): 100
- AMARE phytotoxicity rating ([5]; Rate 125 g al/ha): 100
- AMARE phytotoxicity rating ([5]; Rate 500 g al/ha): 100
- ABUTH phytotoxicity rating ([6]; Rate 125 g al/ha): 100
- ABUTH phytotoxicity rating ([6]; Rate 500 g al/ha): 100
- DIGSA phytotoxicity rating ([7]; Rate 125 g al/ha): 85
- DIGSA phytotoxicity rating ([7]; Rate 500 g al/ha): 100
- SETVI phytotoxicity rating ([8]; Rate 125 g al/ha): 100
- SETVI phytotoxicity rating ([8]; Rate 500 g al/ha): 100
- IPOHE phytotoxicity rating ([9]; Rate 125 g al/ha): 20
- IPOHE phytotoxicity rating ([9]; Rate 500 g al/ha): 20
- AMBEL phytotoxicity rating ([10]; Rate 125 g al/ha): 40
- AMBEL phytotoxicity rating ([10]; Rate 500 g al/ha): 90
- ECHCG phytotoxicity rating ([11]; Rate 125 g al/ha): 40
- ECHCG phytotoxicity rating ([11]; Rate 500 g al/ha): 100
- SORHA phytotoxicity rating ([12]; Rate 125 g al/ha): 70
- SORHA phytotoxicity rating ([12]; Rate 500 g al/ha): 90
- CHEAL phytotoxicity rating ([13]; Rate 125 g al/ha): 100
- CHEAL phytotoxicity rating ([13]; Rate 500 g al/ha): 100
- phytotoxicity rating CASOB ([14]; rate 63 g ai/ha): 70
- phytotoxicity rating CASOB ([14]; rate 500 g ai/ha): 100
- phytotoxicity rating AMARE ([15]; rate 63 g ai/ha): 100
- phytotoxicity rating AMARE ([15]; rate 500 g ai/ha): 100
- phytotoxicity rating ABUTH ([16]; rate 63 g ai/ha): 100
- phytotoxicity rating ABUTH ([16]; rate 500 g ai/ha): 100
- phytotoxicity rating DIGSA ([17]; rate 63 g ai/ha): 10
- phytotoxicity rating DIGSA ([17]; rate 500 g ai/ha): 40
- phytotoxicity rating SETVI ([18]; rate 63 g ai/ha): 80
- phytotoxicity rating SETVI ([18]; rate 500 g ai/ha): 95
- phytotoxicity rating IPOHE ([19]; rate 63 g ai/ha): 100
- phytotoxicity rating IPOHE ([19]; rate 500 g ai/ha): 100
- phytotoxicity rating ECHCG ([20]; rate 63 g ai/ha): 20
- phytotoxicity rating ECHCG ([20]; rate 500 g ai/ha): 65
- phytotoxicity rating SORHA ([21]; rate 63 g ai/ha): 40
- phytotoxicity rating SORHA ([21]; rate 500 g ai/ha): 60
- phytotoxicity rating CHEAL ([22]; rate 63 g ai/ha): 90
- phytotoxicity rating CHEAL ([22]; rate 500 g ai/ha): 100
- phytotoxicity rating AMBEL ([23]; rate 63 g ai/ha): 90
- phytotoxicity rating AMBEL ([23]; rate 500 g ai/ha): 90
- crop damage rating SOY ([24]; rate 63 g ai/ha): 70
- crop damage rating SOY ([24]; rate 500 g ai/ha): 90
- CORN crop damage rating ([25]; Rate 125 g al/ha): 0
- CORN crop damage rating ([25]; Rate 500 g al/ha): 40
- RICE crop damage rating ([26]; Rate 125 g al/ha): 15
- RICE crop damage rating ([26]; Rate 500 g al/ha): 70

Compound: O=c1n(-c2cc(Oc3cccc(Cl)n3)c(Cl)cc2F)c(=S)n2n1CCCC2 [Compound 8-26]
- SOY crop damage rating ([1]; Rate 500 g al/ha): 0
- crop damage rating CORN ([2]; rate 500 g ai/ha): 0
- crop damage rating RICE ([3]; rate 500 g ai/ha): 0
- CASOB phytotoxicity rating ([4]; Rate 500 g al/ha): 0
- AMARE phytotoxicity rating ([5]; Rate 500 g al/ha): 0
- ABUTH phytotoxicity rating ([6]; Rate 500 g al/ha): 0
- DIGSA phytotoxicity rating ([7]; Rate 500 g al/ha): 0
- SETVI phytotoxicity rating ([8]; Rate 500 g al/ha): 0
- IPOHE phytotoxicity rating ([9]; Rate 500 g al/ha): 0
- AMBEL phytotoxicity rating ([10]; Rate 500 g al/ha): 0
- ECHCG phytotoxicity rating ([11]; Rate 500 g al/ha): 0
- SORHA phytotoxicity rating ([12]; Rate 500 g al/ha): 0
- CHEAL phytotoxicity rating ([13]; Rate 500 g al/ha): 0
- phytotoxicity rating CASOB ([14]; rate 500 g ai/ha): 0
- phytotoxicity rating AMARE ([15]; rate 500 g ai/ha): 0
- phytotoxicity rating ABUTH ([16]; rate 500 g ai/ha): 0
- phytotoxicity rating DIGSA ([17]; rate 500 g ai/ha): 0
- phytotoxicity rating SETVI ([18]; rate 500 g ai/ha): 0
- phytotoxicity rating IPOHE ([19]; rate 500 g ai/ha): 0
- phytotoxicity rating ECHCG ([20]; rate 500 g ai/ha): 0
- phytotoxicity rating SORHA ([21]; rate 500 g ai/ha): 0
- phytotoxicity rating CHEAL ([22]; rate 500 g ai/ha): 0
- phytotoxicity rating AMBEL ([23]; rate 500 g ai/ha): 0
- crop damage rating SOY ([24]; rate 500 g ai/ha): 0
- CORN crop damage rating ([25]; Rate 500 g al/ha): 0
- RICE crop damage rating ([26]; Rate 500 g al/ha): 0
